What is called Tmax is the time from dosing to the highest level. The term half-life denotes the time in which the quantity being followed falls by half.

Experimental findings from US12497402B2, “IRAK4 degraders and uses thereof” (priority 2021, dated 2025) are described below.

This data set in a line: in vivo. The following applies: dog, in vivo; for Potential accumulation after multiple doses / Sex differences in mean Cmax and AUC0-24 values / Tmax / half-life: both, beagle; for Tmax / half-life: po; for half-life: t1/2. From the text:
The vehicle was HPBCD (Kleptose Oral Grade HPB) prepared in reverse osmosis water.
Assessment of toxicity was based on mortality, clinical observations, body weights, food consumption, ophthalmic observations, electrocardiographic (ECG) measurements, and clinical and anatomic pathology. Blood samples were collected for toxicokinetic evaluation.

Each structure is given as a SMILES string. A value given as a limit tells only on which side of the number the result lay.

For `Cn1c(=O)n([C@H]2CCC(=O)NC2=O)c2cccc(C#CCOC3CCN(C[C@H]4CC[C@H](n5cc(NC(=O)c6cnn7ccc(N8C[C@H]9C[C@@H]8CO9)nc67)c(C(F)F)n5)CC4)CC3)c21` [Compound B, 5-((1R,4R)-2-oxa-5-azabicyclo[2.2.1]heptan-5-yl)-N-(3-(difluoromethyl)-1-((1r,4R)-4-((4-((3-(1-((S)-2,6-dioxopiperidin-3-yl)-3-methyl-2-oxo-2,3-dihydro-1H-benzo[d]imidazol-4-yl)prop-2-yn-1-yl)oxy)piperidin-1-yl)methyl)cyclohexyl)-1H-pyrazol-4-yl)pyrazolo[1,5-a]pyrimidine-3-carboxamide], the “Potential accumulation after multiple doses” value is given as no more than 1.98 fold; the “Sex differences in mean Cmax and AUC0-24 values” is reported as “less than 2 fold”; the “Dose proportionality of increases in mean Cmax and AUC0-24” value is “less than dose proportional”. The Tmax (5 mg/kg, Tmax) was 4 h. Where the note is “5 mg/kg”, the half-life was 7.6 h. Also, the Tmax (30 mg/kg, Tmax) worked out at 4 h. The Tmax (60 mg/kg, Tmax) turned out to be 4 h. Moreover, for the setting “60 mg/kg/day, median Tmax”, the time to peak (Tmax) worked out at 4 h. The Tmax (100 mg/kg, Tmax) was 6 h. Also, the Tmax (median Tmax) lay in the range of 6 to 9 h.

As to `Cn1c(=O)n([C@@H]2CCC(=O)NC2=O)c2cccc(C#CCOC3CCN(C[C@H]4CC[C@H](n5cc(NC(=O)c6cnn7ccc(N8C[C@H]9C[C@@H]8CO9)nc67)c(C(F)F)n5)CC4)CC3)c21` [Compound C, 5-((1R,4R)-2-oxa-5-azabicyclo[2.2.1]heptan-5-yl)-N-(3-(difluoromethyl)-1-((1r,4R)-4-((4-((3-(1-((R)-2,6-dioxopiperidin-3-yl)-3-methyl-2-oxo-2,3-dihydro-1H-benzo[d]imidazol-4-yl)prop-2-yn-1-yl)oxy)piperidin-1-yl)methyl)cyclohexyl)-1H-pyrazol-4-yl)pyrazolo[1,5-a]pyrimidine-3-carboxamide], the “Potential accumulation after multiple doses” value is no more than 1.86 fold; the “Sex differences in mean Cmax and AUC0-24 values” is recorded as “less than 2 fold”; the “Dose proportionality of increases in mean Cmax and AUC0-24” value is “less than dose proportional”. Besides, the Tmax (5 mg/kg, Tmax) was found to be 4 h. The compound further showed a half-life (5 mg/kg) of 7.65 h. For the same compound, for the setting “30 mg/kg, Tmax”, the Tmax was found to be 4 h. The Tmax (60 mg/kg, Tmax) came to 4 h. In addition, where the note is “60 mg/kg, median Tmax”, the Tmax came to 4 h. For the same compound, the Tmax (100 mg/kg, Tmax) turned out to be 6 h. Besides, the Tmax (200 mg/kg, Tmax) came out at 4 h. The Tmax (median Tmax) was found to be 6 h.
